# Measured values reported in article PMC10746158, “Archaeal GPN-loop GTPases involve a lock-switch-rock mechanism for GTP hydrolysis” (mBio, 2023).
# pKd: −log10 of the molar value.
# Biological target: T1, SaGPN (Sulfolobus acidocaldarius, UniProt Q4J9A7)
# T1 construct: gene Saci_1281; E. coli BL21(DE3) Rosetta; Y2-A240 built, 14 C-terminal residues disordered
# T1 sequence (Q4J9A7 1-254): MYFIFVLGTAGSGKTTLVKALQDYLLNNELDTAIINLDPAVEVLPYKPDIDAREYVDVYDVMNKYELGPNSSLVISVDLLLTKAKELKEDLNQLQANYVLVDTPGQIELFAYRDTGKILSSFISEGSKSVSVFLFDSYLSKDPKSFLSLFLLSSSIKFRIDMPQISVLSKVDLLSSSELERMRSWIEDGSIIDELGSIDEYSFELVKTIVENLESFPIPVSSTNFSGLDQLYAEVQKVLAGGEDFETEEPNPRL
# Test: isothermal titration calorimetry
# Assay type: binding
row,pKd,Structure (SMILES)
1,8.21,Nc1nc2c(ncn2[C@@H]2O[C@H](COP(=O)(O)OP(=O)(O)O)[C@@H](O)[C@H]2O)c(=O)[nH]1 [GDP]
2,8.66,Nc1nc2c(ncn2[C@@H]2O[C@H](COP(=O)(O)OP(=O)(O)OP(=O)(O)O)[C@@H](O)[C@H]2O)c(=O)[nH]1 [GTP]
3,7.66,Nc1nc2c(ncn2[C@@H]2O[C@H](COP(=O)(O)OP(=O)(O)NP(=O)(O)O)[C@@H](O)[C@H]2O)c(=O)[nH]1 [GppNHp]
